What follows are compounds tested against MMP-9 (Homo sapiens, UniProt P14780) (assay: MMP-9 inhibition assay (internally quenched fluorescent peptide substrate)). Details: 1 μM; purified MMP-9 enzyme, incubation at 37 C.
Assay type: biochemical
Protocol: Each of the compounds of Examples 5-12 were assayed for their efficacy as MMP-9 inhibitors. The assay for MMP-9 inhibitors was performed by mixing purified MMP-9 enzyme with assay buffer, substrate, and compound to be tested. The substrate is an internally quenched fluorescent peptide that becomes unquenched upon cleavage by MMP-9 enzyme. After incubation at 37 C., the assay is stopped by addition of EDTA solution and the fluorescence is measured. The fluorescence is directly proportional to enzyme activity. A compound that is an inhibitor of MMP-9 activity will reduce the resultant fluorescent values.

MMP-9, sequence (P14780 94-707, species assumed): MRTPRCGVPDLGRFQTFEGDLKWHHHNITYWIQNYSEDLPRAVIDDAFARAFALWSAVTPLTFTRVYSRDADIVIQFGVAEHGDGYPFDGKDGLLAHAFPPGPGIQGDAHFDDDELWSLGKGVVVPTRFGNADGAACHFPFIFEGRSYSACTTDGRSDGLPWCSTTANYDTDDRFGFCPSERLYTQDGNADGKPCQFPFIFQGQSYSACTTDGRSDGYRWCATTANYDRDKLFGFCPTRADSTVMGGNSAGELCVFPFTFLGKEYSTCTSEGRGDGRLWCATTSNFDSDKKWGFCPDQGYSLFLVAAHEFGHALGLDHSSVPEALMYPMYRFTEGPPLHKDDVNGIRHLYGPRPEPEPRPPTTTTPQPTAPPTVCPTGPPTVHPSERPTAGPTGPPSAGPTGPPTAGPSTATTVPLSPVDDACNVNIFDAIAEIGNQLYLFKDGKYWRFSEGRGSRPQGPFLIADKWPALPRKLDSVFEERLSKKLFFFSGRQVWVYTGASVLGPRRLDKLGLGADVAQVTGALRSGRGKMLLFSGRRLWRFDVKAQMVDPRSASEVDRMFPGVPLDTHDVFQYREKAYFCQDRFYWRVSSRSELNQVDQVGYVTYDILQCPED

inhibition at 1 µM [%] | Compound
52 | COc1ccc(S(=O)(=O)N(CCc2cccc(Cl)c2)CC(=O)N2CC(=O)N(Cc3ccc(F)cc3)CC2CC(=O)NO)cc1 (stereo not drawn) [Example 4, 2-{1-[N-(3-Chlorophenethyl)-N-(4-methoxybenzenesufonyl)-aminoacetyl]-4-(4-fluorobenzyl)-5-oxo-piperazin-2-yl}-N-hydroxy-acetamide]
42 | COc1ccc(CCN(CC(=O)N2CC(=O)N(Cc3ccc(F)cc3)CC2CC(=O)NO)S(=O)(=O)c2ccc(OC)cc2)cc1 (stereo not drawn) [Example 5, 2-{4-(4-fluorobenzyl)-1-[N-(4-methoxybenzenesufonyl)-N-(4-methoxyphenethyl)-aminoacetyl]-5-oxo-piperazin-2-yl}-N-hydroxy-acetamide]
62 | COc1ccc(S(=O)(=O)N(CCc2cccc(Cl)c2)CC(=O)N2CC(=O)N(Cc3cc(OC)cc(OC)c3)CC2CC(=O)NO)cc1 (stereo not drawn) [Example 7, 2-{1-[N-(3-Chlorophenethyl)-N-(4-methoxybenzenesufonyl)-aminoacetyl]-4-(3,5-dimethoxybenzyl)-5-oxo-piperazin-2-yl}-N-hydroxy-acetamide]
35 | COc1ccc(CCN(CC(=O)N2CC(=O)N(Cc3cc(OC)cc(OC)c3)CC2CC(=O)NO)S(=O)(=O)c2ccc(OC)cc2)cc1 (stereo not drawn) [Example 8, 2-{4-(3,5-Dimethoxybenzyl)-1-[N-(4-methoxybenzenesufonyl)-N-(4-methoxyphenethyl)-aminoacetyl]-5-oxo-piperazin-2-yl}-N-hydroxy-acetamide]

Same assay, conditions: purified MMP-9 enzyme, incubation at 37 C

IC50 [µM] | Compound
0.05 | COc1ccc(S(=O)(=O)N(CCc2cccc(Cl)c2)CC(=O)N2C(CC(=O)NO)CN(Cc3ccc(F)cc3)C(=O)[C@@H]2C)cc1 (single isomer, unassigned) [3A (isomer A)]
0.053 | COc1ccc(S(=O)(=O)N(CCc2cccc(Cl)c2)CC(=O)N2C(CC(=O)NO)CN(Cc3ccc(F)cc3)C(=O)[C@@H]2C)cc1 (single isomer, unassigned) [3B (isomer B)]
0.1 | COc1ccc(CCN(CC(=O)N2C(CC(=O)NO)CN(Cc3ccc(F)cc3)C(=O)[C@@H]2C)S(=O)(=O)c2ccc(OC)cc2)cc1 (stereo partly drawn) [Example 6, 2-{4-(4-Fluorobenzyl)-1-[N-(4-methoxybenzenesufonyl)-N-(4-methoxyphenethyl)-aminoacetyl]-6-(S)-methyl-5-oxo-piperazin-2-yl}-N-hydroxy-acetamide]
0.12 | COc1ccc(S(=O)(=O)N(CCc2cccc(Cl)c2)CC(=O)N2C(CC(=O)NO)CN(Cc3cc(OC)cc(OC)c3)C(=O)[C@@H]2C)cc1 (stereo partly drawn) [Example 9, 2-{1-[N-(3-Chlorophenethyl)-N-(4-methoxybenzenesufonyl)-aminoacetyl]4-(3,5-dimethoxybenzyl)-6-(S)-methyl-5-oxo-piperazin-2-yl}-N-hydroxy-acetamide]
0.15 | COc1ccc(CCN(CC(=O)N2C(CC(=O)NO)CN(Cc3cc(OC)cc(OC)c3)C(=O)[C@@H]2C)S(=O)(=O)c2ccc(OC)cc2)cc1 (stereo partly drawn) [Example 10, 2-{4-(3,5-dimethoxybenzyl)-1-[N-(4-methoxybenzenesufonyl)-N-(4-methoxyphenethyl)-aminoacetyl]-6-(S)-methyl-5-oxo-piperazin-2-yl}-N-hydroxy-acetamide]

Source: US6294539A, “Heterocyclic hydroxamic acid derivatives as MMP inhibitors” (Advanced Syntech, LLC, priority 2000, dated 2001)
